# Source: PubChem BioAssay AID1259407 (Chemical Carcinogenesis Research Information System (CCRIS), 2018)
# Activity calls are given as the source filed them. No rule for the calls is given here.
# Tested on: CCRIS mutagenicity, Ames/micronucleus/aberration tests
# Assay: CCRIS mutagenicity studies
# [1] = Test System: AMES SALMONELLA TYPHIMURIUM, Strain/Indicator: TA100, Metabolic Activation: NONE, Method: PREINCUBATION
structure (smiles),measurement,setting,value
CCCCC(CC)CNCC(CC)CCCC (configuration not stated),mutagenic call,"Test System: AMES SALMONELLA TYPHIMURIUM, Strain/Indicator: TA97, Metabolic Activation: HAMSTER, LIVER, S-9, AROCLOR 1254 (10%), Method: PREINCUBATION",inactive; negative
same,mutagenic call,"Test System: AMES SALMONELLA TYPHIMURIUM, Strain/Indicator: TA97, Metabolic Activation: HAMSTER, LIVER, S-9, AROCLOR 1254 (30%), Method: PREINCUBATION",inactive; negative
same,mutagenic call,"Test System: AMES SALMONELLA TYPHIMURIUM, Strain/Indicator: TA97, Metabolic Activation: NONE, Method: PREINCUBATION",inactive; negative
same,mutagenic call,"Test System: AMES SALMONELLA TYPHIMURIUM, Strain/Indicator: TA97, Metabolic Activation: RAT, LIVER, S-9, AROCLOR 1254 (10%), Method: PREINCUBATION",inactive; negative
same,mutagenic call,"Test System: AMES SALMONELLA TYPHIMURIUM, Strain/Indicator: TA97, Metabolic Activation: RAT, LIVER, S-9, AROCLOR 1254 (30%), Method: PREINCUBATION",inactive; negative
same,mutagenic call,"Test System: AMES SALMONELLA TYPHIMURIUM, Strain/Indicator: TA98, Metabolic Activation: HAMSTER, LIVER, S-9, AROCLOR 1254 (10%), Method: PREINCUBATION",inactive; negative
same,mutagenic call,"Test System: AMES SALMONELLA TYPHIMURIUM, Strain/Indicator: TA98, Metabolic Activation: HAMSTER, LIVER, S-9, AROCLOR 1254 (30%), Method: PREINCUBATION",inactive; negative
same,mutagenic call,"Test System: AMES SALMONELLA TYPHIMURIUM, Strain/Indicator: TA98, Metabolic Activation: NONE, Method: PREINCUBATION",inactive; negative
same,mutagenic call,"Test System: AMES SALMONELLA TYPHIMURIUM, Strain/Indicator: TA98, Metabolic Activation: RAT, LIVER, S-9, AROCLOR 1254 (10%), Method: PREINCUBATION",inactive; negative
same,mutagenic call,"Test System: AMES SALMONELLA TYPHIMURIUM, Strain/Indicator: TA98, Metabolic Activation: RAT, LIVER, S-9, AROCLOR 1254 (30%), Method: PREINCUBATION",inactive; negative
same,mutagenic call,"Test System: AMES SALMONELLA TYPHIMURIUM, Strain/Indicator: TA100, Metabolic Activation: HAMSTER, LIVER, S-9, AROCLOR 1254 (10%), Method: PREINCUBATION",inactive; negative
same,mutagenic call,"Test System: AMES SALMONELLA TYPHIMURIUM, Strain/Indicator: TA100, Metabolic Activation: HAMSTER, LIVER, S-9, AROCLOR 1254 (30%), Method: PREINCUBATION",inactive; negative
same,mutagenic call,[1],inactive; negative
same,mutagenic call,"Test System: AMES SALMONELLA TYPHIMURIUM, Strain/Indicator: TA100, Metabolic Activation: RAT, LIVER, S-9, AROCLOR 1254 (10%), Method: PREINCUBATION",inactive; negative
same,mutagenic call,"Test System: AMES SALMONELLA TYPHIMURIUM, Strain/Indicator: TA100, Metabolic Activation: RAT, LIVER, S-9, AROCLOR 1254 (30%), Method: PREINCUBATION",inactive; negative
same,mutagenic call,"Test System: AMES SALMONELLA TYPHIMURIUM, Strain/Indicator: TA1535, Metabolic Activation: HAMSTER, LIVER, S-9, AROCLOR 1254 (10%), Method: PREINCUBATION",inactive; negative
same,mutagenic call,"Test System: AMES SALMONELLA TYPHIMURIUM, Strain/Indicator: TA1535, Metabolic Activation: HAMSTER, LIVER, S-9, AROCLOR 1254 (30%), Method: PREINCUBATION",inactive; negative
same,mutagenic call,"Test System: AMES SALMONELLA TYPHIMURIUM, Strain/Indicator: TA1535, Metabolic Activation: NONE, Method: PREINCUBATION",inactive; negative
same,mutagenic call,"Test System: AMES SALMONELLA TYPHIMURIUM, Strain/Indicator: TA1535, Metabolic Activation: RAT, LIVER, S-9, AROCLOR 1254 (10%), Method: PREINCUBATION",inactive; negative
same,mutagenic call,"Test System: AMES SALMONELLA TYPHIMURIUM, Strain/Indicator: TA1535, Metabolic Activation: RAT, LIVER, S-9, AROCLOR 1254 (30%), Method: PREINCUBATION",inactive; negative
CC(O)CN(CC(C)O)N=O (configuration not stated),mutagenic call,"Test System: AMES SALMONELLA TYPHIMURIUM, Strain/Indicator: TA100, Metabolic Activation: HAMSTER, LIVER, S-9, 3-METHYLCHOLANTHRENE, Method: PREINCUBATION",inactive; negative
same,mutagenic call,"Test System: AMES SALMONELLA TYPHIMURIUM, Strain/Indicator: TA100, Metabolic Activation: HAMSTER, LIVER, S-9, PHENOBARBITAL, Method: PREINCUBATION",active; positive
same,mutagenic call,"Test System: AMES SALMONELLA TYPHIMURIUM, Strain/Indicator: TA100, Metabolic Activation: HAMSTER, LIVER, S-9, Method: PREINCUBATION",inactive; negative
same,mutagenic call,"Test System: AMES SALMONELLA TYPHIMURIUM, Strain/Indicator: TA100, Metabolic Activation: HUMAN, LIVER, S-9, Method: PREINCUBATION",inactive; negative
same,mutagenic call,"Test System: AMES SALMONELLA TYPHIMURIUM, Strain/Indicator: TA100, Metabolic Activation: MONKEY, LIVER, S-9, Method: PREINCUBATION",inactive; negative
same,mutagenic call,"Test System: AMES SALMONELLA TYPHIMURIUM, Strain/Indicator: TA100, Metabolic Activation: MOUSE, LIVER, S-9, 3-METHYLCHOLANTHRENE, Method: PREINCUBATION",inactive; negative
same,mutagenic call,"Test System: AMES SALMONELLA TYPHIMURIUM, Strain/Indicator: TA100, Metabolic Activation: MOUSE, LIVER, S-9, PHENOBARBITAL, Method: PREINCUBATION",active; positive
same,mutagenic call,"Test System: AMES SALMONELLA TYPHIMURIUM, Strain/Indicator: TA100, Metabolic Activation: MOUSE, LIVER, S-9, Method: PREINCUBATION",inactive; negative
same,mutagenic call,[1],inactive; negative
same,mutagenic call,"Test System: AMES SALMONELLA TYPHIMURIUM, Strain/Indicator: TA100, Metabolic Activation: RABBIT, LIVER, S-9, Method: PREINCUBATION",inactive; negative
same,mutagenic call,"Test System: AMES SALMONELLA TYPHIMURIUM, Strain/Indicator: TA100, Metabolic Activation: RAT, LIVER, CYTOSOL, PCB, Method: PREINCUBATION",inactive; negative
same,mutagenic call,"Test System: AMES SALMONELLA TYPHIMURIUM, Strain/Indicator: TA100, Metabolic Activation: RAT, LIVER, MICROSOMES AND CYTOSOL, PCB, Method: PREINCUBATION",active; positive
same,mutagenic call,"Test System: AMES SALMONELLA TYPHIMURIUM, Strain/Indicator: TA100, Metabolic Activation: RAT, LIVER, MICROSOMES AND G6PDH, PCB, Method: PREINCUBATION",active; positive
same,mutagenic call,"Test System: AMES SALMONELLA TYPHIMURIUM, Strain/Indicator: TA100, Metabolic Activation: RAT, LIVER, MICROSOMES, PCB, Method: PREINCUBATION",inactive; negative
same,mutagenic call,"Test System: AMES SALMONELLA TYPHIMURIUM, Strain/Indicator: TA100, Metabolic Activation: RAT, LIVER, S-9 (HEATED), PCB, Method: PREINCUBATION",inactive; negative
same,mutagenic call,"Test System: AMES SALMONELLA TYPHIMURIUM, Strain/Indicator: TA100, Metabolic Activation: RAT, LIVER, S-9 (WITHOUT NADP+), PCB, Method: PREINCUBATION",inactive; negative
same,mutagenic call,"Test System: AMES SALMONELLA TYPHIMURIUM, Strain/Indicator: TA100, Metabolic Activation: RAT, LIVER, S-9, 3-METHYLCHOLANTHRENE, Method: PREINCUBATION",inactive; negative
same,mutagenic call,"Test System: AMES SALMONELLA TYPHIMURIUM, Strain/Indicator: TA100, Metabolic Activation: RAT, LIVER, S-9, AROCLOR 1254, Method: PREINCUBATION",active; positive
same,mutagenic call,"Test System: AMES SALMONELLA TYPHIMURIUM, Strain/Indicator: TA100, Metabolic Activation: RAT, LIVER, S-9, PCB, Method: PREINCUBATION",active; positive
same,mutagenic call,"Test System: AMES SALMONELLA TYPHIMURIUM, Strain/Indicator: TA100, Metabolic Activation: RAT, LIVER, S-9, PHENOBARBITAL, Method: PREINCUBATION",active; positive
same,mutagenic call,"Test System: AMES SALMONELLA TYPHIMURIUM, Strain/Indicator: TA100, Metabolic Activation: RAT, LIVER, S-9, Method: PREINCUBATION",inactive; negative
same,mutagenic call,"Test System: AMES SALMONELLA TYPHIMURIUM, Strain/Indicator: TA100, Method: PREINCUBATION",active; positive
same,mutagenic call,"Test System: AMES SALMONELLA TYPHIMURIUM, Strain/Indicator: TA104, Metabolic Activation: RAT, LIVER, S-9, AROCLOR 1254, Method: PREINCUBATION",inactive; negative
same,mutagenic call,"Test System: AMES SALMONELLA TYPHIMURIUM, Strain/Indicator: TA1535, Metabolic Activation: RAT, LIVER, S-9, AROCLOR 1254, Method: PREINCUBATION",active; positive
same,mutagenic call,"Test System: AMES SALMONELLA TYPHIMURIUM, Strain/Indicator: TA1975, Metabolic Activation: RAT, LIVER, S-9, AROCLOR 1254, Method: PREINCUBATION",active; positive
same,mutagenic call,"Test System: CHINESE HAMSTER V-79, Strain/Indicator: V-79/OUABAIN, Metabolic Activation: HAMSTER, HEPATOCYTES, Method: CELL-MEDIATED",active; positive
CCCCCCCC(=O)N=c1sn(C(=O)CCCCCCC)c2ccc([N+](=O)[O-])cc12,mutagenic call,"Test System: AMES SALMONELLA TYPHIMURIUM, Strain/Indicator: TA100, Metabolic Activation: S-9, Method: STANDARD PLATE",active; positive
